Values joined by “and” are separate entries in the source; they are usually repeats but may differ in a detail not shown here. Identical values can stand only once. Toxic doses and inconclusive results are not listed. How the source made its calls: active means survival T/C of 150% or more; inactive means T/C below 125% in these data.
System: CD2F1 mice, L1210 leukemia ip, survival T/C
Test: NCI In Vivo Anticancer Drug Screen. Data for tumor model L1210 Leukemia (intraperitoneal) in CD2F1 (CDF1) mice
Settings: higher = longer survival
Procedure, shortened: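 Ratio T/C, where T is the treated-group value and C the vehicle-dosed control value, from mice implanted with a transplantable tumor.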

[1] = endpoint: mean survival time, dose: 100.0 mg/kg/injection, schedule: Q01DX001 (ip), vehicle: saline with Tween-80
[2] = endpoint: mean survival time, dose: 100.0 mg/kg/injection, schedule: Q01DX009 (ip), vehicle: saline with Tween-80
[3] = endpoint: mean survival time, dose: 200.0 mg/kg/injection, schedule: Q01DX001 (ip), vehicle: saline with Tween-80
[4] = endpoint: mean survival time, dose: 200.0 mg/kg/injection, schedule: Q01DX009 (ip), vehicle: saline with Tween-80
[5] = endpoint: mean survival time, dose: 400.0 mg/kg/injection, schedule: Q01DX001 (ip), vehicle: saline with Tween-80
[6] = endpoint: mean survival time, dose: 400.0 mg/kg/injection, schedule: Q01DX009 (ip), vehicle: saline with Tween-80
[7] = endpoint: mean survival time, dose: 100.0 mg/kg/injection, schedule: Q04DX003 (ip), vehicle: saline with Tween-80
[8] = endpoint: mean survival time, dose: 200.0 mg/kg/injection, schedule: Q04DX003 (ip), vehicle: saline with Tween-80
[9] = endpoint: mean survival time, dose: 400.0 mg/kg/injection, schedule: Q04DX003 (ip), vehicle: saline with Tween-80
[10] = endpoint: mean survival time, dose: 100.0 mg/kg/injection, schedule: Q01DX009 (ip), vehicle: Klucel (hydroxypropylcellulose) (HPC)
[11] = endpoint: mean survival time, dose: 200.0 mg/kg/injection, schedule: Q01DX009 (ip), vehicle: Klucel (hydroxypropylcellulose) (HPC)
[12] = endpoint: mean survival time, dose: 50.0 mg/kg/injection, schedule: Q01DX009 (ip), vehicle: saline with Tween-80
[13] = endpoint: median survival time, dose: 50.0 mg/kg/injection, schedule: Q04DX002 (ip), vehicle: saline with Tween-80
[14] = endpoint: median survival time, dose: 100.0 mg/kg/injection, schedule: Q04DX002 (ip), vehicle: saline with Tween-80
[15] = endpoint: median survival time, dose: 200.0 mg/kg/injection, schedule: Q04DX002 (ip), vehicle: saline with Tween-80
[16] = endpoint: median survival time, dose: 400.0 mg/kg/injection, schedule: Q04DX002 (ip), vehicle: saline with Tween-80

Measured: T/C

Cc1ccc(S(=O)(=O)Nc2c([N+](=O)[O-])cc([N+](=O)[O-])c3ccccc23)cc1
inactive: endpoint: mean survival time, dose: 6.25 mg/kg/injection, schedule: Q01DX009 (ip), vehicle: saline with Tween-80 104 % of control | endpoint: mean survival time, dose: 6.25 mg/kg/injection, schedule: Q04DX003 (ip), vehicle: saline with Tween-80 100 % of control | endpoint: mean survival time, dose: 12.5 mg/kg/injection, schedule: Q01DX009 (ip), vehicle: saline with Tween-80 100 % of control | endpoint: mean survival time, dose: 12.5 mg/kg/injection, schedule: Q04DX003 (ip), vehicle: saline with Tween-80 96 % of control | endpoint: mean survival time, dose: 25.0 mg/kg/injection, schedule: Q01DX009 (ip), vehicle: saline with Tween-80 103 % of control | endpoint: mean survival time, dose: 25.0 mg/kg/injection, schedule: Q04DX003 (ip), vehicle: saline with Tween-80 100 % of control

CC(C)N(CCNc1nc(C(Cl)(Cl)Cl)nc2ccc(Cl)cc12)C(C)C
inactive: [1] 103 % of control | [2] 96 % of control | [3] 94 % of control | [4] 96 % of control | [5] 103 % of control | [6] 95 % of control

Cc1ccc(C2(C#N)CCCC2)cc1
inactive: endpoint: mean survival time, dose: 100.0 mg/kg/injection, schedule: Q01DX009 (ip), vehicle: saline sonified 97 % of control | [7] 97 % of control | endpoint: mean survival time, dose: 200.0 mg/kg/injection, schedule: Q01DX009 (ip), vehicle: saline sonified 97 % of control | [8] 97 % of control | endpoint: mean survival time, dose: 400.0 mg/kg/injection, schedule: Q01DX009 (ip), vehicle: saline sonified 88 % of control | [9] 97 % of control

O=C1OCC2C1Cc1cc(O)c(O)cc1C2c1ccc(O)c(O)c1 (centres undefined)
inactive: endpoint: mean survival time, dose: 50.0 mg/kg/injection, schedule: Q01DX009 (ip), vehicle: Klucel (hydroxypropylcellulose) (HPC) 96 % of control | [10] 101 % of control | [11] 104 % of control

O=C1c2ccccc2C(=O)N1CCCCCBr
inactive: [2] 96 % of control | [7] 103 % of control | [4] 96 % of control | [8] 91 % of control | [6] 94 % of control | [9] 100 % of control

COC12[C@@H]3N[C@@H]3CN1C1=C(C(=O)C(N3CCCC(O)C3)=C(C)C1=O)[C@@H]2COC(N)=O (some centres undefined)
inactive: endpoint: median survival time, dose: 3.0 mg/kg/injection, schedule: Q01DX001 (ip), vehicle: saline 106 % of control | endpoint: median survival time, dose: 6.0 mg/kg/injection, schedule: Q01DX001 (ip), vehicle: saline 111 % of control | endpoint: median survival time, dose: 12.0 mg/kg/injection, schedule: Q01DX001 (ip), vehicle: saline 118 % of control and 98 % of control | endpoint: median survival time, dose: 24.0 mg/kg/injection, schedule: Q01DX001 (ip), vehicle: saline 108 % of control | endpoint: median survival time, dose: 48.0 mg/kg/injection, schedule: Q01DX001 (ip), vehicle: saline 112 % of control

CCOC(=O)C(=O)Nc1c(C)noc1N
inactive: [1] 109 % of control | [10] 93 % of control | [3] 104 % of control | [11] 93 % of control | [5] 97 % of control | endpoint: mean survival time, dose: 400.0 mg/kg/injection, schedule: Q01DX009 (ip), vehicle: Klucel (hydroxypropylcellulose) (HPC) 91 % of control

CCCCC#CC(=O)CCCCC
inactive: [12] 97 % of control | [2] 102 % of control

C[N+](C)(CC(=O)O)c1ccccc1
inactive: endpoint: mean survival time, dose: 100.0 mg/kg/injection, schedule: Q04DX003 (ip), vehicle: saline 98 % of control | endpoint: mean survival time, dose: 200.0 mg/kg/injection, schedule: Q04DX003 (ip), vehicle: saline 96 % of control | endpoint: mean survival time, dose: 400.0 mg/kg/injection, schedule: Q04DX003 (ip), vehicle: saline 108 % of control

O=C(CC(O)(C(F)(F)F)C(F)(F)F)c1cccc(Cl)c1
inactive: [2] 107 % of control | [7] 105 % of control | [4] 103 % of control | [8] 105 % of control | [6] 119 % of control | [9] 110 % of control

NNC(=O)CCc1ccccc1Br
inactive: [12] 92 % of control and 102 % of control | [2] 102 % of control and 103 % of control | [7] 100 % of control | [4] 93 % of control | [8] 97 % of control

Cc1ccccc1S(=O)(=O)N/N=C/c1ccsc1
inactive: [13] 90 % of control | [14] 90 % of control | [15] 100 % of control | [16] 90 % of control

O=C(CSCC(=O)c1ccc(Br)cc1)c1ccc(Br)cc1
inactive: endpoint: mean survival time, dose: 100.0 mg/kg/injection, schedule: Q01DX001 (ip), vehicle: saline 112 % of control | endpoint: mean survival time, dose: 200.0 mg/kg/injection, schedule: Q01DX001 (ip), vehicle: saline 98 % of control | endpoint: mean survival time, dose: 400.0 mg/kg/injection, schedule: Q01DX001 (ip), vehicle: saline 101 % of control

CC(=O)CC(=O)C1CCC(C(=O)CC(C)=O)CC1 (centres undefined)
inactive: [7] 95 % of control | [8] 91 % of control

O=C1C2C=CC=CC1C1C=CC=CC21 (centres undefined)
inactive: [13] 112 % of control | [14] 100 % of control | [15] 100 % of control | [16] 100 % of control

CC1(C)/C(=N/Nc2ccc([N+](=O)[O-])cc2[N+](=O)[O-])C=Cc2ccccc21
inactive: endpoint: mean survival time, dose: 12.5 mg/kg/injection, schedule: Q01DX009 (ip), vehicle: other 105 % of control | endpoint: mean survival time, dose: 25.0 mg/kg/injection, schedule: Q01DX009 (ip), vehicle: other 94 % of control | endpoint: mean survival time, dose: 100.0 mg/kg/injection, schedule: Q01DX009 (ip), vehicle: other 90 % of control | endpoint: mean survival time, dose: 200.0 mg/kg/injection, schedule: Q01DX009 (ip), vehicle: other 94 % of control

CCOC(=O)C(C(=O)OCC)n1c(=O)c2c(ncn2C)n(C)c1=O
inactive: endpoint: mean survival time, dose: 200.0 mg/kg/injection, schedule: Q01DX005 (ip), vehicle: distilled water + Tween-80 102 % of control | endpoint: mean survival time, dose: 400.0 mg/kg/injection, schedule: Q01DX005 (ip), vehicle: distilled water + Tween-80 101 % of control

CCCCOCCN1CCN(CCCN2c3ccccc3Sc3ccc(C(F)(F)F)cc32)CC1
inactive: endpoint: mean survival time, dose: 2.3 mg/kg/injection, schedule: Q01DX001 (ip), vehicle: saline 106 % of control | endpoint: mean survival time, dose: 3.5 mg/kg/injection, schedule: Q01DX001 (ip), vehicle: saline 100 % of control | endpoint: mean survival time, dose: 5.2 mg/kg/injection, schedule: Q01DX001 (ip), vehicle: saline 105 % of control | endpoint: mean survival time, dose: 7.2 mg/kg/injection, schedule: Q01DX001 (ip), vehicle: saline 112 % of control | endpoint: mean survival time, dose: 11.0 mg/kg/injection, schedule: Q01DX001 (ip), vehicle: saline 107 % of control | endpoint: mean survival time, dose: 16.0 mg/kg/injection, schedule: Q01DX001 (ip), vehicle: saline 104 % of control
